Legend:
P. dominulus = assay: Field trapping Experiment 2, DMNT dose-response with W•H•Y top attractants; format: in vivo, Polistes dominulus; conditions: Exp 2, DMNT added to WHY top attractant
Method: (§1) Three field trapping experiments were carried out during late July to early August 2009, in residential and woody areas around Spokane, Wash., USA, using the newly marketed Rescue® W•H•Y traps (www.rescue.com). As used herein, the W•H•Y trap is a trap in accordance with the description of United States Patent Application Publication No. 2009/0151228. The W•H•Y trap has a top chamber and a bottom chamber. The top chamber is baited with two attractants—one of which is a solid contained in a vial (2-methyl-1-butanol) and the other a liquid mixed with water (acetic acid), herein referred to as the W•H•Y top attractant. The bottom chamber is baited with a liquid attractant (heptyl butyrate) poured onto a cotton pad, herein referred to as the W•H•Y bottom attractant. Separation of the top and bottom attractants (otherwise antagonistic to each other when released from the same chamber) in two chambers was a design feature of this trap and creates two focal attraction sources from one trap for different species of wasps, hornets, and yellowjackets. Traps were hung 1.5-2.0 m above the ground on either the fence or tree branches ca. 5 m apart within each trap line. For each trapping experiment, six sets of traps were deployed with their initial trap positions within each set being randomized. To minimize positional effects and obtain more replications, wasp collections and trap re-randomization were carried out when ≧10-20 wasps were caught in the best trap. Each replicate lasted several days depending on wasp flight activity. Captured wasps were removed from the traps and kept in the zip-bags before taking back to the laboratory for recording of the species, gender status, and catch.
Experiment 3 (Aug. 5-13, 2009) was conducted to determine the potential behavioral activity of different doses of (E)-4,8-dimethyl-1,3,7-nonatriene alone. The individual (or different doses) HIPVs were loaded into either polyethylene bags or centrifuge tube type of dispensers, and released from the top of the W•H•Y trap chamber. W•H•Y trap attractants (both top and bottom or top only) alone and water (top chamber only) were included in the test as positive and blank controls, respectively. The dispenser types, loading and release rates of the tested semiochemicals are described in Tables 1, 2 and 3.
(§2) Trap catch data were converted to proportion (P) of total captured wasps within each replicate. Data were then transformed by arcsin√P to meet the assumptions of normality and homogeneity of variances for ANOVA. Means were compared by ANOVA followed by the Ryan-Einot-Gabriel-Welsh (REGW) multiple Q test (SPSS 16.0 for Windows) at α=0.05.

D. maculata = assay: Field trapping Experiment 3, different doses of DMNT alone; format: in vivo, Dolichovespula maculata
Method: as §1
(§3) Experiment 1 (Jul. 22-30, 2009) tested ten synthetic HIPV candidates [(E)-2-hexenal, (Z)-3-hexen-1-ol, (Z)-3-hexenyl acetate, cis-ocimene, linalool, methyl salicylate, geranyl acetate, trans-β-caryophyllene, trans-β-farnesene and (E)-4,8-dimethyl-1,3,7-nonatriene], including several paper wasp EAD-active compounds (see FIG. 2 for details), to determine their potential synergistic effect on the Rescue® W•H•Y trap attractants to paper wasps, yellowjackets, and hornets. Experiment 2 (Aug. 5-13, 2009) tested behavioral responses of the paper wasps and yellowjackets to the Rescue® W•H•Y trap attractants (top attractants only) and its combination with (E)-4,8-dimethyl-1,3,7-nonatriene, one of the EAD-active and behaviorally significant HIPVs, in a dose-response fashion. Experiment 3 (Aug. 5-13, 2009) was conducted to determine the potential behavioral activity of different doses of (E)-4,8-dimethyl-1,3,7-nonatriene alone. The individual (or different doses) HIPVs were loaded into either polyethylene bags or centrifuge tube type of dispensers, and released from the top of the W•H•Y trap chamber. W•H•Y trap attractants (both top and bottom or top only) alone and water (top chamber only) were included in the test as positive and blank controls, respectively. The dispenser types, loading and release rates of the tested semiochemicals are described in Tables 1, 2 and 3.
as §2

D. arenaria = assay: as above; format: in vivo, Dolichovespula arenaria
Method: as §1, §3, §2

[1] = test system: paper wasps and yellowjackets; assay: Field trapping bioassays, synergism with AA/2MB (summary); format: in vivo; conditions: at the doses tested
Method: as §1
Experiment 3 (Aug. 5-13, 2009) was conducted to determine the potential behavioral activity of different doses of (E)-4,8-dimethyl-1,3,7-nonatriene alone. The individual (or different doses) HIPVs were loaded into either polyethylene bags or centrifuge tube type of dispensers, and released from the top of the W•H•Y trap chamber. […]

[2] = test system: Chrysopa oculata antennae; assay: GC-EAD of synthetic HIPVs on beneficial insect antennae; conditions: FIG. 6
Method: (§4) Aeration samples of the cherry branches (damaged or undamaged/slightly damaged) were injected (3 μl) splitless into a Varian CP-3800 GC equipped with a polar column (HP-INNOWax; 30 m×0.53 mm×1.0 μm film thickness; Agilent Technologies, Wilmington, Del., USA) and a 1:1 effluent splitter that allowed simultaneous flame ionization detection (FID) and electroantennographic detection (EAD) of the European paper wasp (Polistes dominulus) worker antennae to the separated volatile compounds. Helium was used as the carrier gas, and the injector and detector temperatures were 250° C. and 300° C., respectively. Column temperature was 50° C. for 1 min, rising to 240° C. at 10° C./min, and then held for 10 min. The outlet for the EAD was held in a humidified air stream flowing at 0.5 m/sec over the antennal preparation. EAD recordings were made using silver wire-glass capillary electrodes filled with Beadle-Ephrussi Ringer on freshly cut antennae. The antennal signals were stored and analyzed on a PC equipped with a serial IDAC interface box and the program EAD ver. 2.5 (Syntech, Hilversum, The Netherlands). In addition, GC-EAD responses to a synthetic mixture (100 ng/μl each) containing nine known HIPVs including cis-3-hexen-1-ol, cis-3-hexenyl acetate, trans-β-ocimene, (E)-4,8-dimethyl-1,3,7-nonatriene, linalool, methyl salicylate, geranyl acetate, trans-β-caryophyllene and trans-β-farnesene were tested on the P. dominulus workers. (See FIG. 2.) The same chemicals were also tested on beneficial insect antennae from Chrysopa oculata, Myrmeleon crudelis, Podisus maculiventris, and Hippodarnia convergens. (See FIG. 6.) Antennally active peaks in the aeration samples were identified by GC-MS on an HP 6890 GC series coupled with an HP 5973 Mass Selective Detector using the same type of GC column and conditions as described above. Compounds were identified by comparison of retention times with those of authentic standards and with mass spectra of standards.

[3] = test system: Hippodarnia convergens antennae; assay: as above; conditions: FIG. 6
Method: as §4

[4] = test system: Myrmeleon crudelis antennae; assay: as above; conditions: FIG. 6
Method: as §4

[5] = test system: Podisus maculiventris antennae; assay: as above; conditions: FIG. 6
Method: as §4

[6] = Exp 3, release rate 0.25, hole 0.5 mm, loading 15 μL
[7] = Exp 3, release rate 0.5, hole 1 mm, loading 30 μL
[8] = Exp 3, release rate 1, hole 2 mm, loading 75 μL
[9] = Exp 3, release rate 1.5, hole 3 mm, loading 175 μL
[10] = Exp 3, release rate 2, hole 5.5 mm, loading 325 μL

C=C/C=C(\C)CCC=C(C)C [(E)-4,8-dimethyl-1,3,7-nonatriene]
Total Paper Wasps Caught P. dominulus (P. dominulus; release rate 0.25, hole 0.5 mm, loading 15 μL): 7
Total Paper Wasps Caught P. dominulus (P. dominulus; release rate 0.5, hole 1 mm, loading 30 μL): 2
Total Paper Wasps Caught P. dominulus (P. dominulus; release rate 1, hole 2 mm, loading 75 μL): 13
Total Paper Wasps Caught P. dominulus (P. dominulus; release rate 1.5, hole 3 mm, loading 175 μL): 8
Total Paper Wasps Caught P. dominulus (P. dominulus; release rate 2, hole 5.5 mm, loading 325 μL): 5
Total Yellowjackets Caught D. maculata (D. maculata; [6]): 0
Total Yellowjackets Caught D. maculata (D. maculata; [7]): 0
Total Yellowjackets Caught D. maculata (D. maculata; [8]): 0
Total Yellowjackets Caught D. maculata (D. maculata; [9]): 0
Total Yellowjackets Caught D. maculata (D. maculata; [10]): 0
Total Yellowjackets Caught D. arenaria (D. arenaria; [6]): 0
Total Yellowjackets Caught D. arenaria (D. arenaria; [7]): 0
Total Yellowjackets Caught D. arenaria (D. arenaria; [8]): 0
Total Yellowjackets Caught D. arenaria (D. arenaria; [9]): 0
Total Yellowjackets Caught D. arenaria (D. arenaria; [10]): 0
synergism of attraction to mixture of acetic acid and 2-methyl-1-butanol [1]: synergize
synergism of attraction to mixture of acetic acid and 2-methyl-1-butanol ([1]; listed as (E)-4,8-dimenthyl-1,3,7-nonatriene): significantly synergize
EAD-response [2]: strong EAD-responses
EAD-response [3]: strong EAD-responses
EAD-response [4]: strong EAD-responses
EAD-response [5]: strong EAD-responses

COC(=O)c1ccccc1O [Methyl Salicylate, methyl salicylate]
EAD-response [2]: strong EAD-responses
EAD-response [3]: strong EAD-responses
EAD-response [4]: strong EAD-responses
EAD-response [5]: strong EAD-responses

CC/C=C\CCOC(C)=O [Z-3-Hexenyl Acetate, (Z)-3-hexenyl acetate]
EAD-response [2]: strong EAD-responses
EAD-response [3]: strong EAD-responses
EAD-response [4]: strong EAD-responses
EAD-response [5]: strong EAD-responses
